Source: patent US9918968B2, “Rapamycin analogs targeting proteasome function in the treatment of cancer” (THE BOARD OF REGENTS OF THE UNIVERSITY OF TEXAS SYSTEM, priority 2013, dated 2018)

Tests used:
[1] = biological target: T1, 20S core with 19S, 11S, tRpt5 or tPA200; test: Activation of 20S core ChT-L activity by α face ligands (19S, 11S, tRpt5, tPA200); assay type: biochemical, human
T1 construct: purchased Enzo LifeSciences (20S, 11S); Boston Biochemicals (19S complex)
Method: (§1) Human purified proteasome complexes were purchased from Enzo LifeSciences or Boston Biochemicals (19S complex). BODIPY-casein (Invitrogen/Molecular Probes) was used as a model protein substrate, with increasing fluorescence of BODIPY labeled peptide products of degradation monitored for up to 8 hours at 37° C. The peptidase activity of the enzyme was measured as arbitrary intensity units of the released fluorescent group 7-amino-4-methylcoumarin (AMC) from peptide substrates, as described. The common substrates specific for the three kinds of active sites: succinyl-LeuLeuValTyr-7-amido-4-methylcoumarin (Suc-LLVY-MCA; for the ChT-L activity; Bachem), butoxycarbonyl-LeuArgArg-MCA (BocLRR-MCA; for T-L; Bachem) and carbobenzoxy-LeuLeuGlu-MCA (CbzLLE-MCA; for PGPH; Enzo Life Sciences International, Inc.) were used at 100 μM final concentrations, unless stated otherwise (Gaczynska and Osmulski, 2005). Proteasome substrates, rapamycin, its derivatives, and competing peptides were stocked in DMSO and diluted 100-fold in the reaction mixtures. The Rpt5 and PA200 C-terminal peptides were synthesized in the Departmental Peptide Synthesis Core using the standard SPPS chemistry. To activate the latent 20S proteasome, 0.005% (final concentration) of sodium dodecyl sulfate (SDS) was used. The reactions were carried out in 96 well plates, with 2.3 nM proteasome and other components as indicated dissolved in 50 mM Tris-HCl buffer (pH 8.0) and incubated at 37° C. for up to 1 hour. The fluorescence of products was monitored every 2 minutes with a Fluoroskan Ascent plate reader. Reaction rates were calculated from smoothed linear segment of kinetic curves using OriginPro 8.6 (OriginLabs, Northampton, Mass.). For the determination of an inhibition type, at least six distinct substrate concentrations and two inhibitor concentrations were used. The kinetic parameters of inhibition were analyzed in terms of the Michaelis-Menten formalism using the enzyme kinetic module of SigmaPlot v.12 (Systat Software, Inc, San Jose, Calif.) to perform the respective calculations.
De novo assembly of 19S from subunits is a complex process assisted by chaperones. In vitro, and likely also in cells, the 26S can also be reconstructed from 20S and the already-assembled 19S particle in the presence of ATP (Smith et al., 2005). Enhancement of the peptidase activities of the core proteasome is an established test for efficiency of the in vitro reconstruction. […] In contrast, a pretreatment of 20S with 5 μM rapamycin before adding ATP and 19S totally abrogated the activation, leaving the proteasome almost 40% inhibited instead (FIG. 6).

[2] = biological target: T2, human 20S proteasome, ChT-L peptidase; test: ChT-L peptidase activity of purified human 20S proteasome (Suc-LLVY-MCA); assay type: biochemical; settings: for IC50: latent human 20S proteasome
T2 construct: purchased Enzo LifeSciences
Method: as §1, with “The common substrates specific for the three kinds of active sites: succinyl-LeuLeuValTyr-7-amido-4-methylcoumarin (Suc-LLVY-MCA; for the ChT-L activity; Bachem), butoxycarbonyl-LeuArgArg-MCA (BocLRR-MCA; for T-L; Bachem) and carbobenzoxy-LeuLeuGlu-MCA (CbzLLE-MCA; for PGPH; Enzo Life Sciences International, Inc.) were used at 100 μM final concentrations, unless stated otherwise (Gaczynska and Osmulski, 2005).” left out, “The reactions were carried out in 96 well plates, with 2.3 nM proteasome and other components as indicated dissolved in 50 mM Tris-HCl buffer (pH 8.0) and incubated at 37° C. for up to 1 hour.” left out, “calculations. […]” for “calculations.”
The in vitro assay for testing the ChT-L peptidase activity of the purified human 20S proteasome was performed as described above.

[3] = biological target: T3, human 20S proteasome, PGPH peptidase; test: PGPH peptidase activity of purified human 20S proteasome (CbzLLE-MCA); assay type: biochemical; settings: for IC50: latent human 20S proteasome
T3 construct: purchased Enzo LifeSciences
Method: as §1
(§2) IC50 values (a drug concentration causing 50% inhibition of the indicated enzymatic activity) were calculated for ChT-L and PGPH peptidases. Kd (dissociation constant) and Bmax (maximal activation effect achieved; in % above the control activity) values were calculated for the T-L peptidase. Mean±SD from n=2 or 3 experiments, or data from representative experiments set in duplicates or triplicates, are presented in the table. All three peptidase activities changed by no more than ±20%, without a concentration-dependent trend, upon treatment with up to 10 μM of rapamycin unrelated mTOR inhibitors PI-103 or NVP-BEZ235, in two independent experiments.

[4] = biological target: T4, human 20S proteasome, T-L peptidase; test: T-L peptidase activity of purified human 20S proteasome (BocLRR-MCA); assay type: biochemical; settings: for Kd: activation of T-L peptidase; for Bmax [%]: T-L: maximal activation effect, % above the control activity
T4 construct: purchased Enzo LifeSciences
Method: as §1, §2

20S proteasome α face = tested on: T5, 20S proteasome α face; test: AFM imaging of open/closed conformers of 20S proteasome α face; set-up: species or system human; settings: 10 μM compound
T5 construct: purchased Enzo LifeSciences
Method: AFM imaging of the 20S proteasomes were performed as previously described, in tapping (oscillating) mode in liquid (Osmulski et al., 2009 and Gaczynska and Osmulski, 2011). In short, 3 μL of proteasome preparations diluted to nanomolar concentration were deposited on a freshly cleaved muscovite mica surface. After 2 min incubation allowing electrostatic attachment of the protein particles to mica the droplet was overlaid with 30 microL of 50 mM Tris-HCl buffer (pH 7.0) and mounted in the wet chamber of a MultiMode NanoScope Ma (Bruker Corp.). Oxide-sharpened silicon nitride tips on cantilevers with a nominal spring constant 0.32 N/m (Bruker Corp.) were used to image 1 μm^2 fields in the height mode, with a scan rate of 3.05 Hz. The excitation frequency was manually tuned to 9-10 kHz, with a drive voltage of 200-500 mV and a relatively high set point (1.6 V to 1.9 V) to assure tapping with low, non-destructive force. […] As the inventors established previously, such resolution was sufficient to detect distinct conformations of the α face, covered by six scan lines. Multiple fields were scanned for each sample to collect images of hundreds of particles. Selected fields were repeatedly scanned to monitor changes in topography of the same particles for prolonged time. Inhibitors and the SucLLVY-MCA substrate were diluted in 10 μL of the imaging buffer and directly injected into the chamber. Raw images are presented, with a standard plain-fit and flattening (NanoScope software v.5.12) used as the only processing tools. For display purposes the brightness and contrast of the images was adjusted with the Nanoscope software or with Adobe Photoshop (Adobe Systems Inc.), and outlier scan lines were occasionally manually removed (Nanoscope software). Top view (“standing”, rounded) proteasomes were distinguished from the minor population of side-view (“lying”, rectangular) particles as described, by comparison of their length—to width ratios (Osmulski et al., 2009). The dimensions of particles were approximated and a shape of the α face in top-view proteasomes was judged with the help of a section tool in the Nanoscope v.5.12 or SPIP v.6.02 software (Image Metrology).
For this purpose, the inventors used the noninvasive tapping mode atomic force microscopy (AFM) in liquid, the imaging technique suitable for analysis of surface topography of macromolecules in their native state with a nanometer-scale practical resolution. The inventors established before that AFM imaging is a useful tool for studying structural dynamics of the 20S α face (Osmulski et al., 2009, Gaczynska et al., 2003; Gaczynska et al., 2011). They acquired and analyzed images of hundreds of single native, fully active 20S molecules. The majority of particles were in top-view (“standing”) position conveniently allowing for imaging of their α faces. […] Following previous extensive studies, the inventors refer to the two forms as “closed-gate” and “open-gate” proteasomes, respectively (Osmulski et al., 2009). As described before, the inventors used the shape of sections carried out in four directions through the top portion of the surface topography of the α ring to distinguish between the two forms. In short, the particle was classified as closed if all four sections were cone-shaped. In contrast, the particle was classified as open if all sections presented a dip surrounded by a rim (FIG. 5A) (Osmulski, et al., 2009). The same particles imaged in consecutive scans were able to assume either closed or open conformations, however the cone-shaped particles were always more abundant than crater-shaped, and accounted for about three-quarters of the imaged molecules (FIG. 5B). Addition of rapamycin to the imaged particles remarkably changed the partition of forms. […]

Compound	IC50 [2]	IC50 [3]	Kd [4]	Bmax [%]: T-L [4]	further results
11S: 11S proteasome activator complex PA28/REG					increase of ChT-L activity by protein complex ([1]; 1:1 molar ratio with 20S): 8 fold
C=CC[C@@H]1/C=C(\C)C[C@H](C)C[C@H](OC)[C@H]2O[C@@](O)(C(=O)C(=O)N3CCCC[C@H]3C(=O)O[C@H](/C(C)=C/[C@@H]3CC[C@@H](O)[C@H](OC)C3)[C@H](C)[C@@H](O)CC1=O)[C@H](C)C[C@@H]2OC [FK-506]	> 20 µM	0.93 ± 0.04 µM	1.14 µM	257%	lowering of activation by tRpt5 ([1]; 10 μM derivative, 10 μM tRpt5): about 30%; inhibition of proteasome with or without tPA200 ([1]; 10 μM derivative, presence or absence of 10 μM tPA200): about 40%
Oc1cccc(-c2nc(N3CCOCC3)c3oc4ncccc4c3n2)c1 [PI-103]					effect on activation of 20S with 19S ([1]; 5 μM): no detectable effects; closed conformers (20S proteasome α face): 74%±4%; closed conformers after substrate (20S proteasome α face; then SucLLVY-MCA 100 μM): 29%±5%
CO[C@H]1C[C@@H]2CC[C@@H](C)[C@@](O)(O2)C(=O)C(=O)N2CCCC[C@H]2C(=O)O[C@H]([C@H](C)C[C@@H]2CC[C@@H](OCCO)[C@H](OC)C2)CC(=O)[C@H](C)/C=C(\C)[C@@H](O)[C@@H](OC)C(=O)[C@H](C)C[C@H](C)/C=C/C=C/C=C/1C [everolimus]	2.5 ± 0.7 µM	0.48 ± 0.11 µM	0.07 µM	93%	
CC[C@@H]1/C=C(\C)C[C@H](C)C[C@H](OC)[C@H]2O[C@@](O)(C(=O)C(=O)N3CCCC[C@H]3C(=O)O[C@H](/C(C)=C/[C@@H]3CC[C@H](Cl)[C@H](OC)C3)[C@H](C)[C@@H](O)CC1=O)[C@H](C)C[C@@H]2OC [pimecrolimus]	> 20 µM	0.57 ± 0.12 µM	1.82 µM	483%	remaining ChT-L activity ([2]; 5 μM pimecrolimus alone): 82%; IC50 for PGPH increase as compared with rapamycin ([3]; relative to rapamycin): 40%; closed conformers (20S proteasome α face): ~40%; open conformers (20S proteasome α face): about 60%
CO[C@H]1C[C@@H]2CC[C@@H](C)[C@@](O)(O2)C(=O)C(=O)N2CCCC[C@H]2C(=O)O[C@H]([C@H](C)C[C@@H]2CC[C@@H](O)[C@H](OC)C2)CC(=O)[C@H](C)/C=C(\C)[C@@H](O)[C@@H](OC)C(=O)[C@H](C)C[C@H](C)/C=C/C=C/C=C/1C [rapamycin]	1.9 ± 0.2 µM	0.41 ± 0.03 µM	0.14 µM	83%	remaining ChT-L activity ([2]; 2 μM rapamycin alone): 70%; ChT-L peptidase activity ([2]; 2 μM, % of DMSO control, representative experiment): 52%; ChT-L peptidase activity after 10-fold dilution ([2]; after incubation with 2 μM, 10-fold dilution): 99%; Ki ([2]; mixed inhibition model): 490 nM; PGPH peptidase activity ([3]; 0.2 μM, % of control): 48%; PGPH peptidase activity after 10-fold dilution ([3]; after incubation with 0.2 μM, 10-fold dilution): 96%; Ki ([3]; noncompetitive inhibition): 250 nM; inhibition of ChT-L activity, 20S pretreated before ATP and 19S ([1]; 5 μM, 19S 1:1): ~40%; inhibition of proteasome in presence of tPA200 ([1]; 10 μM compound, 10 μM tPA200): 50%
CO[C@H]1C[C@@H]2CC[C@@H](C)[C@@](O)(O2)C(=O)C(=O)N2CCCC[C@H]2C(=O)O[C@H]([C@H](C)C[C@@H]2CC[C@@H](OP(C)(C)=O)[C@H](OC)C2)CC(=O)[C@H](C)/C=C(\C)[C@@H](O)[C@@H](OC)C(=O)[C@H](C)C[C@H](C)/C=C/C=C/C=C/1C [ridaforolimus]	2.9 ± 0.5 µM	0.43 ± 0.11 µM	0.11 µM	114%	
CO[C@H]1C[C@@H]2CC[C@@H](C)[C@@](O)(O2)C(=O)C(=O)N2CCCC[C@H]2C(=O)O[C@H]([C@H](C)C[C@@H]2CC[C@@H](OC(=O)C(C)(CO)CO)[C@H](OC)C2)CC(=O)[C@H](C)/C=C(\C)[C@@H](O)[C@@H](OC)C(=O)[C@H](C)C[C@H](C)/C=C/C=C/C=C/1C [temsirolimus]	2.1 ± 0.2 µM	0.36 ± 0.03 µM	0.19 µM	81%	IC50 for ChT-L lower than rapamycin ([2]; relative to rapamycin): ~40%; IC50 for PGPH lower than rapamycin ([3]; relative to rapamycin): 20%
